In patent US20060222628A1, “Gallium complexes of 3-hydroxy-4-pyrones to treat infection by intracellular prokaryotes and DNA viruses” (priority 1999, published 2006):

Experiments:
Type in all cases: in vivo, human
HIV infection = assay: Clinical evaluation for treating HIV infection; conditions: 250, 500 or 750 mg/day oral about six months, with AZT, ddI and indinavir
Description: Patients with HIV infection are treated once per day with gelatin capsules containing 250 mg gallium maltolate. Patients are divided randomly and blindly into approximately equal groups that receive either 0 (placebo), 250, 500, or 750 mg/day gallium maltolate for about six months, together with 300 mg AZT twice per day, 200 mg ddI twice per day, and 800 mg indinavir every eight hours. Patients are medically monitored for symptoms of HIV infection throughout the study. In addition, blood serum samples are obtained from the patients at days 0, 30, 90, and 180 and are assayed for CD4 T-cell count by routine methods and for HIV-1 RNA (viral load assay) using the Roche […] ultra-assay (Sun et al. (1998), “Ultrasensitive reverse transcription-PCR assay for quantitation of human immunodeficiency virus type 1 RNA in plasma,” J. Clin. Microbiol. 36(10):2964-2969).

HIV-1 = assay: Clinical evaluation in co-infection by HIV and hepatitis B: HIV; conditions: hepatitis B co-infected patients; MacSynergy II
Description: Gallium maltolate is evaluated clinically for efficacy in treating hepatitis B co-infection of a HIV-1 patients. In addition to the methods used in Example 5 for evaluating the HIV disease, the methods employed in the clinical studies discussed in the following references are used in the evaluation: Yao et al. (1997), “Treatment of Chronic Hepatitis B: New Antiviral Therapies,” Curr. Gastroenterol. Rep. 1(1):20-26; Hoofnagle et al. (1997), “New therapies for chronic hepatitis B,” supra.
Patients are treated once per day with gelatin capsules containing gallium maltolate. The population of patients with hepatitis B and HIV infection are first divided into two subpopulations groups based on CD4+ counts (above 350/mm^3 and below 350/mm^3). […]
In each subpopulation, the first group's four subgroups from each subpopulation (above 350/mm^3 and below 350/mm^3) additionally receive the gallium maltolate dose together with 10 million IU interferon by injection once per day. […] Patients are monitored for HIV disease precisely as described in Example 5. Patients are also medically monitored for liver disease, including liver function testing and examination for medical symptoms of hepatitis B infection throughout the study, with careful attention to the possibility that the drugs themselves may cause some liver disease and elevate the liver function tests. […]

CMV = assay: Clinical evaluation for prevention of CMV disease in HIV patients: CMV
Text: In this example, prevention of CMV disease rather than its treatment will be studied. Chemo-prevention by antivirals is preferred, rather than with immune stimulating agents such as interferons, because interferons require regular administration by injection. Foscarnet is an antiviral only for injection, but it is studied for comparison with oral antivirals. […] In addition to the methods used in Example 5 for evaluating the HIV disease, some of the methods employed in the following reference are used in the evaluation: Monkemuller et al. (2000), “Esophageal ulcer caused by cytomegalovirus: resolution during combination antiretroviral therapy for acquired immunodeficiency syndrome,” South Med. J. 93(8):8 18-20. Patients are treated once per day with gelatin capsules containing gallium maltolate. The population of patients with CMV (almost universal, seropositive or culture positive patients) and HIV infection are first divided into two subpopulations groups based on CD4+ counts (above 350/mm^3 and below 350/mm^3). The subpopulations are randomly and blindly divided into two groups each randomly subdivided into subgroups for a total of sixteen approximately equal subgroups that receive either 0 (placebo), 250, 500, or 750 mg/day gallium maltolate for about six months. All subgroups receive the identical regimen of non-gallium antiretroviral therapy as described in Example 5 (a HAART regime). The commonly used nucleoside analog for CMV is ganciclovir, with foscavir used in cases where ganciclovir is ineffective, and the combination used to treat refractory CMV retinitis and other conditions. Foscarnet must be infused slowly to avoid adverse reactions. […] Patients are monitored for HIV disease precisely as described in Example 5. Patients are also medically monitored for CMV disease, including testing and examination for medical symptoms of CMV disease, such as CMV retinitis, throughout the study. […]

Structure (SMILES): Cc1occc(=O)c1[O-].Cc1occc(=O)c1[O-].Cc1occc(=O)c1[O-].[Ga+3] [gallium maltolate, tris(3-hydroxy-2-methyl-4H-pyran-4-onato)gallium]
- Efficacy in treating HIV infection (HIV infection): effective for treating HIV infection
- Synergy with the HAART regime on HIV infection (HIV-1): synergistic with the HAART regime in their effects upon the HIV infection
- Efficacy in preventing CMV disease in combination (CMV; HIV patients on HAART, with foscarnet or ganciclovir): effective in combination with either foscarnet or ganciclovir
- Prevention of CMV disease with only oral agents (CMV; gallium plus ganciclovir versus placebo plus ganciclovir): adequate and effecting better results than placebo plus ganciclovir
- Synergy in preventing CMV disease (CMV; with foscarnet or ganciclovir): synergistic with both
